Article PMC3961306, “Comparison of the Cancer Gene Targeting and Biochemical Selectivities of All Targeted Kinase Inhibitors Approved for Clinical Use” (PLoS ONE, 2014)

Tests used:
Experiment in all cases: Kinase profiling in a biochemical assay panel (mobility shift assays and ELISA), %-inhibition at 1 μM; selectivity entropy
[1] = target: panel of more than 300 wild-type and mutant kinases (313 kinase panel) (Homo sapiens, UniProt O94804)
[2] = target: panel of more than 300 wild-type and mutant kinases (313 kinase panel) (Homo sapiens, UniProt O96017)
[3] = target: panel of more than 300 wild-type and mutant kinases (313 kinase panel) (Homo sapiens, UniProt P10721, V560G)
[4] = target: panel of more than 300 wild-type and mutant kinases (313 kinase panel) (Homo sapiens, UniProt P17252)
[5] = target: panel of more than 300 wild-type and mutant kinases (313 kinase panel) (Homo sapiens, UniProt P22455)
[6] = target: panel of more than 300 wild-type and mutant kinases (313 kinase panel) (Homo sapiens, UniProt P23443)
[7] = target: T1, panel of more than 300 wild-type and mutant kinases (313 kinase panel) (Homo sapiens, UniProt P51817)
T1 sequence (P51817 1-358): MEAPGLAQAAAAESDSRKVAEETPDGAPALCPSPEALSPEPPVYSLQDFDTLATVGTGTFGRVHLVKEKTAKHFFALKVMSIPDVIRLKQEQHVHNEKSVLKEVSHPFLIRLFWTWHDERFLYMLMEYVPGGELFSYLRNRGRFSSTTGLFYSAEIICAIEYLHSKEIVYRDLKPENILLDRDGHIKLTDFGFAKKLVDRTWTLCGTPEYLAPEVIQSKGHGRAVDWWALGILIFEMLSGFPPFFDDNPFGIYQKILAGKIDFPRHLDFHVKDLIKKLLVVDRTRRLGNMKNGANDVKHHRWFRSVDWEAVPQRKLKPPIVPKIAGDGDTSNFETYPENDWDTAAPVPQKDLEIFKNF

[8] = target: T2, panel of more than 300 wild-type and mutant kinases (313 kinase panel) (Homo sapiens, UniProt P51955)
T2 sequence (P51955 1-445): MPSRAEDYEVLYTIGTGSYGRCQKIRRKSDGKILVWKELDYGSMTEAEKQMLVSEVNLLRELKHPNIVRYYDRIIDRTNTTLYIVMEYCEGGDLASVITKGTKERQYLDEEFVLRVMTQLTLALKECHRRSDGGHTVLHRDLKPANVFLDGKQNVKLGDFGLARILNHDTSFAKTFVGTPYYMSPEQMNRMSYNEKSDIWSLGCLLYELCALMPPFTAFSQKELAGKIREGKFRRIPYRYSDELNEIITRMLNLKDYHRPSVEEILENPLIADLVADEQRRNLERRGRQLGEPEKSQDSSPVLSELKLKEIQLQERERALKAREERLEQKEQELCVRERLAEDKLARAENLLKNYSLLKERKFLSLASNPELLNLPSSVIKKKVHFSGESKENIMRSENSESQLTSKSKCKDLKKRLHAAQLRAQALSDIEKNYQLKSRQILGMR

[9] = target: panel of more than 300 wild-type and mutant kinases (313 kinase panel) (Homo sapiens, UniProt Q14012)
[10] = target: panel of more than 300 wild-type and mutant kinases (313 kinase panel) (Homo sapiens, UniProt Q14680)
[11] = target: T3, panel of more than 300 wild-type and mutant kinases (313 kinase panel) (Homo sapiens, UniProt Q15139)
T3 sequence (Q15139 1-912): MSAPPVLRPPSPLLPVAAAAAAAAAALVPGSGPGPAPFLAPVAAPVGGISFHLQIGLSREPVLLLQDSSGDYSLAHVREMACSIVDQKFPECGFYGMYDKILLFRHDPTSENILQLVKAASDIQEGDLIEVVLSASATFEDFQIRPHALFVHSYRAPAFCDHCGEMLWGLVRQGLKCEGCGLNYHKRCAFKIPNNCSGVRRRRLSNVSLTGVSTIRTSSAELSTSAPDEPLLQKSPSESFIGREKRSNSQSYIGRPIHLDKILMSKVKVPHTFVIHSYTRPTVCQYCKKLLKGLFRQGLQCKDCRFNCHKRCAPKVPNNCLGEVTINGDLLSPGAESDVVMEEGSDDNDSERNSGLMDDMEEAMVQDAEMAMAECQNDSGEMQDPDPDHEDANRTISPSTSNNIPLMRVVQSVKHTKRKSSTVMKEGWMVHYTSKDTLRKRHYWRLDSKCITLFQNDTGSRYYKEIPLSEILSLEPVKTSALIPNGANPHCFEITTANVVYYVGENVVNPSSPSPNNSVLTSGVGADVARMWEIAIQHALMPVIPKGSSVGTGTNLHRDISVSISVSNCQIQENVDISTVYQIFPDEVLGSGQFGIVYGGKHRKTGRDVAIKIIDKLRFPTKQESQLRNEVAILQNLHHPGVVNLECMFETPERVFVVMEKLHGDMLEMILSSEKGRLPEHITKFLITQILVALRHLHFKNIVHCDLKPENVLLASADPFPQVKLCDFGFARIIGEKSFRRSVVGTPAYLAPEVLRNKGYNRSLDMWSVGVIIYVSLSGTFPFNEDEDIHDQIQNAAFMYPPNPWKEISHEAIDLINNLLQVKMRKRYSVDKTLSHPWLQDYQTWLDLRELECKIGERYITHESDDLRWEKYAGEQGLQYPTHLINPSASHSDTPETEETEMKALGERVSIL

[12] = kinase KIT(V560G), compound at 1 μM

panel of more than 300 wild-type and mutant kinases (313 kinase panel) (Homo sapiens, UniProt O94804), sequence (O94804 whole entry, change not shown): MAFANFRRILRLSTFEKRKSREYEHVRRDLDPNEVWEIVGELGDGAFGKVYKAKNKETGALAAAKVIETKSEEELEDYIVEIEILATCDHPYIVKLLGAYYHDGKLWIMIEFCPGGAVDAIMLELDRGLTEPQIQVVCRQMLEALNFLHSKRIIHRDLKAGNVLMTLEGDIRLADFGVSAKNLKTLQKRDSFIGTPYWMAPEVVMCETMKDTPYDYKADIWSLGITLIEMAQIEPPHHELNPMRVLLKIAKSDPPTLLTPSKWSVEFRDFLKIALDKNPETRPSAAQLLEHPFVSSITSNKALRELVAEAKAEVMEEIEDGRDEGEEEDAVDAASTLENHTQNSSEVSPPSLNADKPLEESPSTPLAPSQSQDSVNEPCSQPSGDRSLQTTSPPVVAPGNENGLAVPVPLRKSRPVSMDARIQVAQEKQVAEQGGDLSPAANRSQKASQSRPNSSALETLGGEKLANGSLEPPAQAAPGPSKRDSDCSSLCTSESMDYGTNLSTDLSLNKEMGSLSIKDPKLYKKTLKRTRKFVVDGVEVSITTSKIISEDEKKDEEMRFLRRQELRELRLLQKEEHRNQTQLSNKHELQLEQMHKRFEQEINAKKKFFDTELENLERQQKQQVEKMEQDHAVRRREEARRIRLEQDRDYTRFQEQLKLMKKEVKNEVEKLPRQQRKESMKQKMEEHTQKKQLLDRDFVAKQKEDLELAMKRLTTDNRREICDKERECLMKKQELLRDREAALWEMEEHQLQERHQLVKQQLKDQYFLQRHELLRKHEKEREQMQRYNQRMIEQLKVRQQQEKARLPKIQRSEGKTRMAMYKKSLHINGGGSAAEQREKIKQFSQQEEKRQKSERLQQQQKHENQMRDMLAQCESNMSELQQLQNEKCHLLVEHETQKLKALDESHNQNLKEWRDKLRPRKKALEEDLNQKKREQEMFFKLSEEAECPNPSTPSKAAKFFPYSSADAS
panel of more than 300 wild-type and mutant kinases (313 kinase panel) (Homo sapiens, UniProt P10721, V560G), sequence (P10721 26-976 V560G): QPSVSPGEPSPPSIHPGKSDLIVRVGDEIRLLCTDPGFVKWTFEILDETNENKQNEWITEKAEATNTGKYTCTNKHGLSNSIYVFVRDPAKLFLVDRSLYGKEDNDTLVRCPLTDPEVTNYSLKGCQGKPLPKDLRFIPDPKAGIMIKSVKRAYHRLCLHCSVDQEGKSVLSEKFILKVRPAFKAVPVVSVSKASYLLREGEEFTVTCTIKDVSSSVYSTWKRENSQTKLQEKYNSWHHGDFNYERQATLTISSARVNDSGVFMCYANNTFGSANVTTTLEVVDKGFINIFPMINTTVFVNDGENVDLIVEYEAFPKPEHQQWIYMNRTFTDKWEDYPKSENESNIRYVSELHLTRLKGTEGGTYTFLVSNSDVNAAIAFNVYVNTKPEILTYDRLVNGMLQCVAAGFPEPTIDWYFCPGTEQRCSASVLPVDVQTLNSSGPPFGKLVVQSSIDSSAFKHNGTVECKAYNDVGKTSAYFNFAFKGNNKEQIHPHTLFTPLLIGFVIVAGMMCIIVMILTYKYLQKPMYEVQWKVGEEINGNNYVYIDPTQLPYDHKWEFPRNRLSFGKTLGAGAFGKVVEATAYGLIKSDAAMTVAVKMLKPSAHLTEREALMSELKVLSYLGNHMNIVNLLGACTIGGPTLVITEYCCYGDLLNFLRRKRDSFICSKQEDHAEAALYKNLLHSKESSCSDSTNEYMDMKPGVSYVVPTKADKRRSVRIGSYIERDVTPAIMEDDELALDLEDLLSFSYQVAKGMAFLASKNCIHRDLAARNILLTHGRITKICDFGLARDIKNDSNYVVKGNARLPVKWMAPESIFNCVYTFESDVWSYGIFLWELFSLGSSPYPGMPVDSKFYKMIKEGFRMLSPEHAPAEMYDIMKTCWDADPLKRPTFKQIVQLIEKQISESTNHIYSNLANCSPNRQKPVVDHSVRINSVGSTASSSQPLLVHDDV

Row | SMILES | %-inhibition of LOK ([1]; kinase LOK, compound at 1 μM) [%] | %-inhibition, CHK2 ([2]; kinase CHK2, 1 μM compound) [%] | %-inhibition of KIT(V560G) [3, 12] [%] | %-inhibition of PKCα ([4]; kinase PKCα, 1 μM) [%] | %-inhibition of FGFR4 ([5]; kinase FGFR4, compound at 1 μM) [%] | %-inhibition of p70S6K ([6]; kinase p70S6K, 1 μM) [%] | %-inhibition of PRKX ([7]; kinase PRKX, 1 μM) [%] | %-inhibition of NEK2 ([8]; kinase NEK2, 1 μM) [%] | %-inhibition, CaMK1α ([9]; kinase CaMK1α, 1 μM compound) [%] | %-inhibition of MELK ([10]; kinase MELK, compound at 1 μM) [%] | %-inhibition of PKD1 ([11]; kinase PKD1, 1 μM) [%] | further results
1 | CCCS(=O)(=O)Nc1ccc(F)c(C(=O)c2c[nH]c3ncc(-c4ccc(Cl)cc4)cc23)c1F [vemurafenib] | -1 | 6.32 | 32 | -3.61 | 5 | 9 | -3.45 | -1 | -3.18 | 4 | 43 | –
2 | O=S(=O)(c1cccc2cnccc12)N1CCCNCC1 [fasudil] | 11 | 4 | 0.322 | – | – | 38 | 86 | -1 | -5.45 | 25 | 64 | –
3 | CO[C@H]1C[C@@H]2CC[C@@H](C)[C@@](O)(O2)C(=O)C(=O)N2CCCC[C@H]2C(=O)O[C@H]([C@H](C)C[C@@H]2CC[C@@H](OCCO)[C@H](OC)C2)CC(=O)[C@H](C)/C=C(\C)[C@@H](O)[C@@H](OC)C(=O)[C@H](C)C[C@H](C)/C=C/C=C/C=C/1C [everolimus] | -9 | -37 | -6 | -11 | -7.59 | -13 | -4.49 | -7 | -8 | -3.33 | -13 | –
4 | CNC(=O)c1cc(Oc2ccc(NC(=O)Nc3ccc(Cl)c(C(F)(F)F)c3)c(F)c2)ccn1 [regorafenib] | 80 | -2.11 | 99 | -11 | 33 | 92 | -5.52 | -6.65 | -6 | -4.52 | 37 | –
5 | CC(=O)Nc1cccc(-n2c(=O)n(C3CC3)c(=O)c3c(Nc4ccc(I)cc4F)n(C)c(=O)c(C)c32)c1 [trametinib] | 12 | -5 | 1 | -5 | -3 | -1.39 | -1.19 | 2.76 | -2 | -0.588 | 9 | –
6 | CO[C@H]1C[C@@H]2CC[C@@H](C)[C@@](O)(O2)C(=O)C(=O)N2CCCC[C@H]2C(=O)O[C@H]([C@H](C)C[C@@H]2CC[C@@H](OC(=O)C(C)(CO)CO)[C@H](OC)C2)CC(=O)[C@H](C)/C=C(\C)[C@@H](O)[C@@H](OC)C(=O)[C@H](C)C[C@H](C)/C=C/C=C/C=C/1C [temsirolimus] | -5 | -3.45 | -5 | -6 | -4.51 | -13 | -1.9 | -5 | -6.61 | -1.66 | -17 | –
7 | COc1cc2nccc(Oc3ccc(NC(=O)C4(C(=O)Nc5ccc(F)cc5)CC4)cc3)c2cc1OC [cabozantinib] | 96 | 65 | 96 | -8.47 | 8 | 8 | -2.42 | -0.384 | -0.897 | 54 | -12 | –
8 | C#Cc1cccc(Nc2ncnc3cc(OCCOC)c(OCCOC)cc23)c1 [erlotinib] | – | – | – | – | – | – | – | – | – | – | – | %-inhibition of LOK ([1]; 1 µM): 93%; %-inhibition, CHK2 ([2]; 1 µM): 10%; %-inhibition of KIT(V560G) ([3]; 1 µM): 17%; %-inhibition of PKCα ([4]; 1 µM): 8%; %-inhibition of FGFR4 ([5]; 1 µM): 6%; %-inhibition of p70S6K ([6]; 1 µM): 10%; %-inhibition of PRKX ([7]; 1 µM): 2%; %-inhibition of NEK2 ([8]; 1 µM): -0.556%; %-inhibition, CaMK1α ([9]; 1 µM): 2.51%; %-inhibition of MELK ([10]; 1 µM): 2.69%; %-inhibition of PKD1 ([11]; 1 µM): 13%
